Source: article PMC4411097, “Pachymic Acid Inhibits Growth and Induces Apoptosis of Pancreatic Cancer In Vitro and In Vivo by Targeting ER Stress” (PLoS ONE, 2015)

Tested on: MIA PaCa-2 cells
Test: DNA microarray analysis (Affymetrix Human PrimeView);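 on Mean (MiaPaca-2 * PA): Log2-transformed RMA normalized probe set signal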
Assay type: cell-based
[1] = gene ATF3, probeset 11753632_x_at
[2] = gene C3orf52, probeset 11724431_at
[3] = gene C3orf59, probeset 11722936_at
[4] = gene C17orf91, probeset 11740895_a_at
[5] = gene C17orf91, probeset 11740896_s_at
[6] = gene CASP1, probeset 11750553_x_at
[7] = gene CCNE2, probeset 11728301_a_at
[8] = gene CD83, probeset 11743000_at
[9] = gene CDCP1, probeset 11732062_a_at
[10] = gene CDKN1A, probeset 11715387_at
[11] = gene CEBPG, probeset 11717693_at
[12] = gene CTGF, probeset 11715440_a_at
[13] = gene CTPS, probeset 11747890_a_at
[14] = gene CTSC, probeset 11731465_a_at
[15] = gene DDIT3, probeset 11758198_s_at
[16] = gene DNAJB1, probeset 11715445_a_at
[17] = gene DNAJB1, probeset 11715446_a_at
[18] = gene EGR1, probeset 11717862_x_at
[19] = gene EGR1, probeset 11754334_s_at
[20] = gene EGR3, probeset 11736342_at
[21] = gene EIF4A2, probeset 11760707_a_at
[22] = gene EIF4A2, probeset 11760708_at
[23] = gene FOS, probeset 11734659_a_at
[24] = gene FOSL1, probeset 11760574_x_at
[25] = gene HKDC1, probeset 11722519_at
[26] = gene HKDC1, probeset 11722521_at

Compound: C=C(CC[C@@H](C(=O)O)[C@H]1[C@H](O)C[C@@]2(C)C3=C(CC[C@]12C)[C@@]1(C)CC[C@H](OC(C)=O)C(C)(C)[C@@H]1CC3)C(C)C [PA, Pachymic acid]
- Fold-Change (MiaPaca-2 * PA vs. MiaPaca-2 * control) (gene AEN, probeset 11754296_a_at, MiaPaca-2): 1.50
- Mean (MiaPaca-2 * PA) (gene AEN, probeset 11754296_a_at, MiaPaca-2, PA-treated): 8.26
- Fold-Change (MiaPaca-2 * PA vs. MiaPaca-2 * control) [1]: 1.60
- Mean (MiaPaca-2 * PA) [1]: 5.51
- Fold-Change (MiaPaca-2 * PA vs. MiaPaca-2 * control) [2]: 1.60
- Mean (MiaPaca-2 * PA) [2]: 7.34
- Fold-Change (MiaPaca-2 * PA vs. MiaPaca-2 * control) [3]: 1.55
- Mean (MiaPaca-2 * PA) [3]: 8.02
- Fold-Change (MiaPaca-2 * PA vs. MiaPaca-2 * control) (gene C6orf145, probeset 11754483_a_at, MiaPaca-2): 1.51
- Mean (MiaPaca-2 * PA) (gene C6orf145, probeset 11754483_a_at, MiaPaca-2, PA-treated): 7.32
- Fold-Change (MiaPaca-2 * PA vs. MiaPaca-2 * control) [4]: 1.61
- Mean (MiaPaca-2 * PA) [4]: 7.42
- Fold-Change (MiaPaca-2 * PA vs. MiaPaca-2 * control) [5]: 1.67
- Mean (MiaPaca-2 * PA) [5]: 7.56
- Fold-Change (MiaPaca-2 * PA vs. MiaPaca-2 * control) (gene CAMTA1, probeset 11723154_s_at, MiaPaca-2): 1.52
- Mean (MiaPaca-2 * PA) (gene CAMTA1, probeset 11723154_s_at, MiaPaca-2, PA-treated): 6.50
- Fold-Change (MiaPaca-2 * PA vs. MiaPaca-2 * control) (gene CAPRIN2, probeset 11749098_a_at, MiaPaca-2): 1.50
- Mean (MiaPaca-2 * PA) (gene CAPRIN2, probeset 11749098_a_at, MiaPaca-2, PA-treated): 8.43
- Fold-Change (MiaPaca-2 * PA vs. MiaPaca-2 * control) (gene CASP1, probeset 11738884_x_at, MiaPaca-2): 1.53
- Mean (MiaPaca-2 * PA) (gene CASP1, probeset 11738884_x_at, MiaPaca-2, PA-treated): 7.07
- Fold-Change (MiaPaca-2 * PA vs. MiaPaca-2 * control) [6]: 1.55
- Mean (MiaPaca-2 * PA) [6]: 7.39
- Fold-Change (MiaPaca-2 * PA vs. MiaPaca-2 * control) [7]: 1.56
- Mean (MiaPaca-2 * PA) [7]: 6.40
- Fold-Change (MiaPaca-2 * PA vs. MiaPaca-2 * control) [8]: 1.58
- Mean (MiaPaca-2 * PA) [8]: 7.70
- Fold-Change (MiaPaca-2 * PA vs. MiaPaca-2 * control) (gene CDC25A, probeset 11726757_s_at, MiaPaca-2): 1.51
- Mean (MiaPaca-2 * PA) (gene CDC25A, probeset 11726757_s_at, MiaPaca-2, PA-treated): 7.92
- Fold-Change (MiaPaca-2 * PA vs. MiaPaca-2 * control) [9]: 1.58
- Mean (MiaPaca-2 * PA) [9]: 6.86
- Fold-Change (MiaPaca-2 * PA vs. MiaPaca-2 * control) [10]: 1.56
- Mean (MiaPaca-2 * PA) [10]: 6.94
- Fold-Change (MiaPaca-2 * PA vs. MiaPaca-2 * control) [11]: 1.57
- Mean (MiaPaca-2 * PA) [11]: 9.81
- Fold-Change (MiaPaca-2 * PA vs. MiaPaca-2 * control) (gene CEBPG, probeset 11717694_a_at, MiaPaca-2): 1.51
- Mean (MiaPaca-2 * PA) (gene CEBPG, probeset 11717694_a_at, MiaPaca-2, PA-treated): 8.37
- Fold-Change (MiaPaca-2 * PA vs. MiaPaca-2 * control) (gene CIDEB, probeset 11752838_s_at, MiaPaca-2): 1.52
- Mean (MiaPaca-2 * PA) (gene CIDEB, probeset 11752838_s_at, MiaPaca-2, PA-treated): 5.52
- Fold-Change (MiaPaca-2 * PA vs. MiaPaca-2 * control) [12]: 1.65
- Mean (MiaPaca-2 * PA) [12]: 5.48
- Fold-Change (MiaPaca-2 * PA vs. MiaPaca-2 * control) [13]: 1.56
- Mean (MiaPaca-2 * PA) [13]: 7.43
- Fold-Change (MiaPaca-2 * PA vs. MiaPaca-2 * control) [14]: 1.61
- Mean (MiaPaca-2 * PA) [14]: 7.37
- Fold-Change (MiaPaca-2 * PA vs. MiaPaca-2 * control) [15]: 1.54
- Mean (MiaPaca-2 * PA) [15]: 6.68
- Fold-Change (MiaPaca-2 * PA vs. MiaPaca-2 * control) [16]: 1.59
- Mean (MiaPaca-2 * PA) [16]: 10.46
- Fold-Change (MiaPaca-2 * PA vs. MiaPaca-2 * control) [17]: 1.56
- Mean (MiaPaca-2 * PA) [17]: 11.54
- Fold-Change (MiaPaca-2 * PA vs. MiaPaca-2 * control) (gene DUSP2, probeset 11721695_s_at, MiaPaca-2): 1.51
- Mean (MiaPaca-2 * PA) (gene DUSP2, probeset 11721695_s_at, MiaPaca-2, PA-treated): 7.47
- Fold-Change (MiaPaca-2 * PA vs. MiaPaca-2 * control) (gene DUSP5, probeset 11717863_a_at, MiaPaca-2): 1.52
- Mean (MiaPaca-2 * PA) (gene DUSP5, probeset 11717863_a_at, MiaPaca-2, PA-treated): 7.89
- Fold-Change (MiaPaca-2 * PA vs. MiaPaca-2 * control) (gene DUSP6, probeset 11741980_a_at, MiaPaca-2): 1.53
- Mean (MiaPaca-2 * PA) (gene DUSP6, probeset 11741980_a_at, MiaPaca-2, PA-treated): 10.54
- Fold-Change (MiaPaca-2 * PA vs. MiaPaca-2 * control) [18]: 1.65
- Mean (MiaPaca-2 * PA) [18]: 7.37
- Fold-Change (MiaPaca-2 * PA vs. MiaPaca-2 * control) [19]: 1.60
- Mean (MiaPaca-2 * PA) [19]: 10.76
- Fold-Change (MiaPaca-2 * PA vs. MiaPaca-2 * control) [20]: 1.55
- Mean (MiaPaca-2 * PA) [20]: 6.51
- Fold-Change (MiaPaca-2 * PA vs. MiaPaca-2 * control) [21]: 1.61
- Mean (MiaPaca-2 * PA) [21]: 10.11
- Fold-Change (MiaPaca-2 * PA vs. MiaPaca-2 * control) [22]: 1.66
- Mean (MiaPaca-2 * PA) [22]: 7.82
- Fold-Change (MiaPaca-2 * PA vs. MiaPaca-2 * control) (gene EIF4A2 /// SNORA4, probeset 11757137_s_at, MiaPaca-2): 1.51
- Mean (MiaPaca-2 * PA) (gene EIF4A2 /// SNORA4, probeset 11757137_s_at, MiaPaca-2, PA-treated): 5.63
- Fold-Change (MiaPaca-2 * PA vs. MiaPaca-2 * control) (gene EREG, probeset 11763822_at, MiaPaca-2): 1.52
- Mean (MiaPaca-2 * PA) (gene EREG, probeset 11763822_at, MiaPaca-2, PA-treated): 6.66
- Fold-Change (MiaPaca-2 * PA vs. MiaPaca-2 * control) (gene FLJ36031, probeset 11739442_s_at, MiaPaca-2): 1.53
- Mean (MiaPaca-2 * PA) (gene FLJ36031, probeset 11739442_s_at, MiaPaca-2, PA-treated): 8.29
- Fold-Change (MiaPaca-2 * PA vs. MiaPaca-2 * control) [23]: 1.61
- Mean (MiaPaca-2 * PA) [23]: 7.33
- Fold-Change (MiaPaca-2 * PA vs. MiaPaca-2 * control) (gene FOSL1, probeset 11724479_x_at, MiaPaca-2): 1.52
- Mean (MiaPaca-2 * PA) (gene FOSL1, probeset 11724479_x_at, MiaPaca-2, PA-treated): 6.50
- Fold-Change (MiaPaca-2 * PA vs. MiaPaca-2 * control) [24]: 1.56
- Mean (MiaPaca-2 * PA) [24]: 8.39
- Fold-Change (MiaPaca-2 * PA vs. MiaPaca-2 * control) (gene GBP1, probeset 11726328_x_at, MiaPaca-2): 1.50
- Mean (MiaPaca-2 * PA) (gene GBP1, probeset 11726328_x_at, MiaPaca-2, PA-treated): 5.03
- Fold-Change (MiaPaca-2 * PA vs. MiaPaca-2 * control) (gene HERPUD1, probeset 11741510_a_at, MiaPaca-2): 1.50
- Mean (MiaPaca-2 * PA) (gene HERPUD1, probeset 11741510_a_at, MiaPaca-2, PA-treated): 9.22
- Fold-Change (MiaPaca-2 * PA vs. MiaPaca-2 * control) [25]: 1.60
- Mean (MiaPaca-2 * PA) [25]: 8.79
- Fold-Change (MiaPaca-2 * PA vs. MiaPaca-2 * control) [26]: 1.59
- Mean (MiaPaca-2 * PA) [26]: 6.86
- Fold-Change (MiaPaca-2 * PA vs. MiaPaca-2 * control) (gene HMOX1, probeset 11753446_x_at, MiaPaca-2): 1.50
- Mean (MiaPaca-2 * PA) (gene HMOX1, probeset 11753446_x_at, MiaPaca-2, PA-treated): 6.67
